Active and inactive are the calls of the source. The rule behind the calls is not given here.
What was measured:
[1] = Toxicity in female SPF Kunming mouse assessed as change in HBG count at 20 mg/kg/day, ip measured after 24 hrs; assay type: organism-based; settings: in vivo
[2] = Toxicity in female SPF Kunming mouse assessed as change in RBC count at 20 mg/kg/day, ip measured after 24 hrs; assay type: organism-based; settings: in vivo
Staphylococcus aureus [3] = experiment: Antibacterial activity against methicillin-resistant Staphylococcus aureus assessed as inhibition of bacterial growth measured after 3 hrs in presence of plasma; assay type: functional, organism-based
Staphylococcus aureus [4] = experiment: Anti-biofilim activity against Staphylococcus aureus biofilm assessed bacterial survival rate at 16 ug/ml measured after 24 hrs incubation; assay type: functional
Escherichia coli [5] = experiment: Bactericidal activity against early exponential phase Escherichia coli assessed as bacterial killing at 3 ug/ml incubated for 6 hrs by time-kill assay; assay type: functional, organism-based; settings: dose 3.0 µg/ml
[6] = Toxicity in female SPF Kunming mouse assessed as pathological changes in kidney at 200 mg/kg/day, sc measured after 24 hrs by hematoxylin and eosin staining based assay; assay type: organism-based; settings: in vivo
Staphylococcus aureus [7] = experiment: Anti-bacterial activity against 100 times rifampicin induced persistent cells of Staphylococcus aureus assessed as reduction in persistent cells at 32 times of MIC; assay type: functional
Escherichia coli [8] = experiment: Bactericidal activity against late exponential phase Escherichia coli assessed as bacterial elimination at 8 ug/ml incubated for 6 to 8 hrs by time-kill assay; assay type: functional; settings: dose 8 µg/ml; time 6-8 hrs
Staphylococcus aureus [9] = experiment: In vivo antibacterial activity against methicillin-resistant Staphylococcus aureus subcutaneously infected in SPF female Kunming mouse model assessed as improvement in inflammatory cell infiltration in skin at 5 to 10 mg/kg/day injected into blister after 6 hrs of infection measured after 6 consecutive treatments by H and E staining based assay; assay type: functional, organism-based; settings: dose 5-10 mg/kg/day, route […]
Staphylococcus aureus [10] = experiment: In vivo antibacterial activity against methicillin-resistant Staphylococcus aureus subcutaneously infected in SPF female Kunming mouse model assessed as reduction wound at 5 mg/kg/day injected into blister after 6 hrs of infection measured after 6 consecutive treatments; assay type: functional
[11] = Hemolytic activity in Red blood cells (unknown origin) assessed as hemolytic rate at 1280 ug/ml relative to control; assay type: toxicity, cell-based, Erythrocyte; settings: at 1280 µg/mL, read-out: Activity
Staphylococcus aureus [12] = experiment: Anti-biofilim activity against Staphylococcus aureus biofilm assessed bacterial survival rate at 4 ug/ml measured after 24 hrs incubation; assay type: functional
[13] = Cytotoxicity against human Gastric mucosal cells measured after 24 hrs by CCK-8 assay; assay type: toxicity, cell-based, Gastric mucosal cell
[14] = Hemolytic activity in sheep red blood cells measured after 1 hr incubation; assay type: toxicity, cell-based, Ovis aries, Erythrocyte
[15] = Toxicity in female SPF Kunming mouse assessed as change in ALB level at 20 mg/kg/day, ip measured after 24 hrs; assay type: organism-based; settings: in vivo
Staphylococcus aureus [16] = experiment: Down-regulation of N-terminal TPP binding domain in Staphylococcus aureus at 0.25 ug/ml and incubated for 4 hrs by Transcriptome analysis; assay type: functional, organism-based; settings: dose 0.25 µg/ml
Staphylococcus aureus [17] = experiment: Anti-biofilim activity against Staphylococcus aureus biofilm assessed bacterial survival rate at 32 ug/ml measured after 24 hrs incubation; assay type: functional
Staphylococcus aureus [18] = experiment: Down-regulation of pyrimidine metabolic pathway genes in Staphylococcus aureus at 0.25 ug/ml and incubated for 4 hrs by Transcriptome analysis; assay type: functional, organism-based; settings: dose 0.25 µg/ml
Staphylococcus aureus [19] = experiment: Anti-microbial activity against Staphylococcus aureus assessed as bacterial growth inhibition in presence of LPS (exogenous bacterial cell membrane component) measured after 18 hrs; assay type: functional, organism-based
Staphylococcus aureus [20] = experiment: Antimicrobial activity against Staphylococcus aureus assessed as inhibition of growth incubated for 18 hrs by CLSI guidelines based assay; assay type: functional
Staphylococcus aureus [21] = experiment: Antibacterial activity against methicillin-resistant Staphylococcus aureus assessed as inhibition of bacterial growth incubated for 18 hrs by CLSI guidelines based assay; assay type: functional
Staphylococcus aureus [22] = experiment: Anti-biofilim activity against Staphylococcus aureus biofilm assessed bacterial survival rate at 8 ug/ml measured after 24 hrs incubation; assay type: functional
[23] = Toxicity in female SPF Kunming mouse assessed as change in HCT count at 20 mg/kg/day, ip measured after 24 hrs; assay type: organism-based; settings: in vivo
Staphylococcus aureus [24] = experiment: Antibacterial activity against methicillin-resistant Staphylococcus aureus assessed as inhibition of bacterial growth measured immediately after addition in presence of plasma; assay type: functional, organism-based
[25] = Toxicity in female SPF Kunming mouse assessed as change in CREA level at 20 mg/kg/day, ip measured after 24 hrs; assay type: organism-based; settings: in vivo
Cell membrane = experiment: Induction of membrane damage in Escherichia coli assessed as nucleic acid leakage measured at 0.5 to 2 times of MIC by microplate spectrophotometry; assay type: subcellular; settings: TDE = time-dependent effect
[26] = Toxicity in female SPF Kunming mouse assessed as change in PLT count at 20 mg/kg/day, ip measured after 24 hrs; assay type: organism-based; settings: in vivo
Staphylococcus aureus [27] = experiment: Down-regulation of pyridoxal-phosphate-dependent enzyme in Staphylococcus aureus at 0.25 ug/ml and incubated for 4 hrs by Transcriptome analysis; assay type: functional, organism-based; settings: dose 0.25 µg/ml
Staphylococcus aureus [28] = experiment: Resistance development in Staphylococcus aureus assessed as increase in MIC measured within 20 passages of continues culture; assay type: functional
[29] = Toxicity in female SPF Kunming mouse assessed as pathological changes in liver at 200 mg/kg/day, sc measured after 24 hrs by hematoxylin and eosin staining based assay; assay type: organism-based; settings: in vivo
Staphylococcus aureus [30] = experiment: Anti-microbial activity against Staphylococcus aureus assessed as bacterial growth inhibition in presence of CL (exogenous bacterial cell membrane component) measured after 18 hrs; assay type: functional, organism-based
Staphylococcus aureus [31] = experiment: Bactericidal activity against late exponential phase Staphylococcus aureus assessed as bacterial elimination at 8 ug/ml incubated for 6 to 8 hrs by time-kill assay; assay type: functional; settings: dose 8 µg/ml; time 6-8 hrs
Staphylococcus aureus [32] = experiment: Down-regulation of thiamine pyrophosphate enzyme in Staphylococcus aureus at 0.25 ug/ml and incubated for 4 hrs by Transcriptome analysis; assay type: functional, organism-based; settings: dose 0.25 µg/ml
Staphylococcus aureus [33] = experiment: Up-regulation of quorum sensing pathway genes in Staphylococcus aureus at 0.25 ug/ml and incubated for 4 hrs by Transcriptome analysis; assay type: functional, organism-based; settings: dose 0.25 µg/ml
Staphylococcus aureus [34] = experiment: Bactericidal activity against early exponential phase Staphylococcus aureus assessed as bacterial killing at 3 ug/ml incubated for 4 hrs by time-kill assay; assay type: functional, organism-based; settings: dose 3.0 µg/ml
Staphylococcus aureus [35] = experiment: Induction of ROS level in Staphylococcus aureus assessed as increase in intracellular ROS level at 0.125 to 0.5 ug/ml measured after 4.5 hrs by ROS-sensitive fluorescent probe DCF-DA staining based assay; assay type: functional, organism-based; settings: dose 0.125-0.5 µg/ml
[36] = Toxicity in female SPF Kunming mouse assessed as change in MCV count at 20 mg/kg/day, ip measured after 24 hrs; assay type: organism-based; settings: in vivo
[37] = Toxicity in female SPF Kunming mouse assessed as change in UREA level at 20 mg/kg/day, ip measured after 24 hrs; assay type: organism-based; settings: in vivo
[38] = Toxicity in female SPF Kunming mouse assessed as pathological changes in spleen at 200 mg/kg/day, sc measured after 24 hrs by hematoxylin and eosin staining based assay; assay type: organism-based; settings: in vivo
[39] = Toxicity in female SPF Kunming mouse assessed as change in WBC count at 20 mg/kg/day, ip measured after 24 hrs; assay type: organism-based; settings: in vivo
[40] = Toxicity in female SPF Kunming mouse assessed as survival rate at 200 mg/kg/day, sc measured after 24 hrs; assay type: organism-based; settings: in vivo
Staphylococcus aureus [41] = experiment: Anti-microbial activity against Staphylococcus aureus assessed as bacterial growth inhibition in presence of 0.5 to […] ug/ml PG (exogenous bacterial cell membrane component) measured after 18 hrs; assay type: functional, organism-based
[42] = Cytotoxicity against human Gastric mucosal cells measured assessed as cell morphology at 32 ug/ml measured after 24 hrs by Electron scanning microscopy; assay type: toxicity, cell-based; settings: dose 32 µg/ml

With `CCCCCCCC[N+](C)(C)CCCCOc1cc(OCCCC[N+](C)(C)CCCCCCCC)cc(OCCCC[N+](C)(C)CCCCCCCC)c1.[Br-].[Br-].[Br-]` the Activity [1] was “Non-Toxic”, the Activity [2] was “Non-Toxic” and the Activity (Staphylococcus aureus [3]) was “Active”. The survival at 16 µg/mL (Staphylococcus aureus [4]) was 0.01%, the Activity (Escherichia coli [5]) was “Active” and the Activity [6] was “Non-Toxic”. For the same compound, the Activity (Staphylococcus aureus [7]) was 5.7 log10CFU/ml, the Activity (Escherichia coli [8]) was 100% and the Activity (Staphylococcus aureus [9]) was “Active”. It also gave an Activity (Staphylococcus aureus [10]) of 251188.6 CFU, a hemolysis at 1280 ug/ml [11] of less than 5% and a survival at 4 µg/mL (Staphylococcus aureus [12]) of 2.3%. The CC50 at 24 h [13] was less than 153 µg/mL, the HC50 at 1 h [14] was greater than 1280 µg/mL and the Activity [15] was “Non-Toxic”. The Activity (Staphylococcus aureus [16]) was “Active”, the survival at 32 µg/mL (Staphylococcus aureus [17]) was 0.002% and the Activity (Staphylococcus aureus [18]) was “Active”. The Activity (Staphylococcus aureus [19]) was “inactive”, the MIC (Staphylococcus aureus [20]) was 0.5 µg/mL and the MIC50 (Staphylococcus aureus [21]) was 1 µg/mL. For the same compound, the MIC90 (Staphylococcus aureus [21]) was no less than 16 µg/mL, the survival at 8 µg/mL (Staphylococcus aureus [22]) was 0.61% and the Activity [23] was “Non-Toxic”. For the same compound, the Activity (Staphylococcus aureus [24]) was “Active”, the Activity [25] was “Non-Toxic” and the Activity (Cell membrane) was “Tde”. The Activity [26] was “Non-Toxic”, the Activity (Staphylococcus aureus [27]) was “Active” and the MIC (Staphylococcus aureus [28]) was 0.5 µg/mL. For the same compound, the Activity [29] was “Non-Toxic”, the Activity (Staphylococcus aureus [30]) was “Active” and the Activity (Staphylococcus aureus [31]) was 100%. For the same compound, the Activity (Staphylococcus aureus [32]) was “Active”, the Activity (Staphylococcus aureus [33]) was “Active” and the Activity (Staphylococcus aureus [34]) was “Active”. For the same compound, the Activity (Staphylococcus aureus [35]) was “Active”, the Activity [36] was “Non-Toxic” and the Activity [37] was “Non-Toxic”. For the same compound, the Activity [38] was “Non-Toxic”, the Activity [39] was “Non-Toxic” and the survival at 24 h [40] was 100%. The Activity (Staphylococcus aureus [41]) was “inactive” and the Activity [42] was “Non-Toxic”.

From ChEMBL document CHEMBL6071176, “Development of Phloroglucinol-Linked Tris-Quaternary Ammonium Salt Antimicrobial Peptide Mimics with Low Cytotoxicity and Broad-Spectrum Antibacterial Activity” (J Med Chem, 2024)
